Source: ChEMBL document CHEMBL1157484, “Protein subtype-targeting through ligand epimerization: talose-selectivity of galectin-4 and galectin-8” (Bioorg Med Chem Lett, 2008)

Legend:
[1] = Binding affinity to human galectin4C by fluorescence polarization assay
Galectin-2 = biological target: T1, Galectin-2 (Homo sapiens, UniProt P05162); assay: Binding affinity to human galectin2 by fluorescence polarization assay
T1 sequence (P05162 whole entry): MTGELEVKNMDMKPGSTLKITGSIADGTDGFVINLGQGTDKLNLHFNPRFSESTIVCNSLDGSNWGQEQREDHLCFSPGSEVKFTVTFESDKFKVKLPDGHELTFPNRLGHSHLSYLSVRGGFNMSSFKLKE

[2] = Binding affinity to human galectin4N by fluorescence polarization assay
[3] = Binding affinity to human galectin8N by fluorescence polarization assay
[4] = Binding affinity to human galectin9N by fluorescence polarization assay
Galectin-3 = Galectin-3 (Homo sapiens, UniProt P17931); assay: Binding affinity to human galectin3 by fluorescence polarization assay
Galectin-1 = Galectin-1 (Homo sapiens, UniProt P09382); assay: Binding affinity to human galectin1 by fluorescence polarization assay
Sequence of Galectin-1 (P09382 whole entry): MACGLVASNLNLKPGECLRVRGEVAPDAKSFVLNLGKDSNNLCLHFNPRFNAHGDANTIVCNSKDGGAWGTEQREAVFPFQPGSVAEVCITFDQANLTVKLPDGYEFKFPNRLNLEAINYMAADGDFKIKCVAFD

Sequence of Galectin-3 (P17931 whole entry): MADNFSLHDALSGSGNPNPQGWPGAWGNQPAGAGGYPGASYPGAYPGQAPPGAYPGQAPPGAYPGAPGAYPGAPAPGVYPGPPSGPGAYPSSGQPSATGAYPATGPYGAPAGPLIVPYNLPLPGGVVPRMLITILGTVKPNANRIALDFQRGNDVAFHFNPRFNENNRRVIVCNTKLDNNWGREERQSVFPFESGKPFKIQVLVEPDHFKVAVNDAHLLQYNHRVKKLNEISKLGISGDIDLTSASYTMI

Kd [1]	Kd (Galectin-2)	Kd [2]	Kd [3]	Kd [4]	Kd (Galectin-3)	Kd (Galectin-1)	Compound
> 10 mM	13 mM	6.6 mM	6.3 mM	1.2 mM			CO[C@@H]1O[C@H](CO)[C@H](O)[C@H](O)[C@H]1O
1.6 mM	> 4 mM	> 4 mM	> 4 mM	> 4 mM	0.55 mM	> 4 mM	CO[C@@H]1O[C@H](CO)[C@H](O)[C@H](OC(=O)c2ccc(C)cc2)[C@@H]1OC(C)=O
> 4 mM	1.5 mM	> 4 mM		> 4 mM	2.3 mM	> 4 mM	CO[C@@H]1O[C@H](CO)[C@H](O)[C@H](OC(=O)c2ccc(C)cc2)[C@@H]1O[PH](=O)O
> 4 mM	> 4 mM	> 4 mM	1 mM	> 4 mM	0.6 mM	> 4 mM	CO[C@@H]1O[C@H](CO)[C@H](O)[C@H](OC(=O)c2ccc(C)cc2)[C@@H]1OP(=O)(O)OC
		> 4 mM	0.4 mM	> 4 mM	1.4 mM	2 mM	CO[C@@H]1O[C@H](CO)[C@H](O)[C@H](OC(=O)c2ccc(C)cc2)[C@@H]1O
0.16 mM	> 4 mM	> 4 mM	3.6 mM	> 4 mM	0.7 mM	1.8 mM	CO[C@@H]1O[C@H](CO)[C@H](O)[C@H](OC(=O)c2ccc(C)cc2)[C@@H]1OC(=O)c1ccc(C)cc1
10 mM	> 10 mM	> 10 mM	1.5 mM	4.6 mM			CO[C@@H]1O[C@H](CO)[C@H](O)[C@H](O)[C@@H]1O
3 mM	> 4 mM	> 4 mM	1.1 mM	> 4 mM	0.25 mM	> 4 mM	CO[C@@H]1O[C@H](CO)[C@H](O)[C@H](OC(=O)c2ccc(C)cc2)[C@@H]1OS(=O)(=O)O
